In one series the target is PDGFRa (Homo sapiens, UniProt P16234). Description: Inhibition profile at 500 nM: PDGFRa. The series is classed as biochemical. Particulars: 500 nM test compound, read-out: Percent inhibition PDGFRa. Here is the method: (§1) Then enzyme substrate is added as 10 μl of 2.5×FAM-labeled peptide+ATP solution to each well of the 384-well assay plate The reaction is allowed to proceed at 28° C. and quenched with the addition of 25 μl of stop buffer. The release of fluorescent FAM is quantitated as Percent inhibition=(max−conversion)/(max−min)*100.sp; “max” stands for DMSO control; “min” stands for low control. Convert conversion values to inhibition values. Percent inhibition=(max−conversion)/(max−min)*100. “max” stands for DMSO control; “min” stands for low control.

Another series has as its target FGR (Homo sapiens, UniProt P09769). Description: Inhibition profile at 500 nM: FGR. It counts as biochemical. To be noted: 500 nM test compound, read-out: Percent inhibition FGR. Here is the method: as §1
For a further series, the target named is ABL (Homo sapiens, UniProt P00519). Put plainly: Inhibition profile at 500 nM: ABL / Abl1. The series is classed as biochemical. To be noted: 500 nM test compound, Table 1. As for the experimental part: as §1
Sequence of ABL (P00519 whole entry): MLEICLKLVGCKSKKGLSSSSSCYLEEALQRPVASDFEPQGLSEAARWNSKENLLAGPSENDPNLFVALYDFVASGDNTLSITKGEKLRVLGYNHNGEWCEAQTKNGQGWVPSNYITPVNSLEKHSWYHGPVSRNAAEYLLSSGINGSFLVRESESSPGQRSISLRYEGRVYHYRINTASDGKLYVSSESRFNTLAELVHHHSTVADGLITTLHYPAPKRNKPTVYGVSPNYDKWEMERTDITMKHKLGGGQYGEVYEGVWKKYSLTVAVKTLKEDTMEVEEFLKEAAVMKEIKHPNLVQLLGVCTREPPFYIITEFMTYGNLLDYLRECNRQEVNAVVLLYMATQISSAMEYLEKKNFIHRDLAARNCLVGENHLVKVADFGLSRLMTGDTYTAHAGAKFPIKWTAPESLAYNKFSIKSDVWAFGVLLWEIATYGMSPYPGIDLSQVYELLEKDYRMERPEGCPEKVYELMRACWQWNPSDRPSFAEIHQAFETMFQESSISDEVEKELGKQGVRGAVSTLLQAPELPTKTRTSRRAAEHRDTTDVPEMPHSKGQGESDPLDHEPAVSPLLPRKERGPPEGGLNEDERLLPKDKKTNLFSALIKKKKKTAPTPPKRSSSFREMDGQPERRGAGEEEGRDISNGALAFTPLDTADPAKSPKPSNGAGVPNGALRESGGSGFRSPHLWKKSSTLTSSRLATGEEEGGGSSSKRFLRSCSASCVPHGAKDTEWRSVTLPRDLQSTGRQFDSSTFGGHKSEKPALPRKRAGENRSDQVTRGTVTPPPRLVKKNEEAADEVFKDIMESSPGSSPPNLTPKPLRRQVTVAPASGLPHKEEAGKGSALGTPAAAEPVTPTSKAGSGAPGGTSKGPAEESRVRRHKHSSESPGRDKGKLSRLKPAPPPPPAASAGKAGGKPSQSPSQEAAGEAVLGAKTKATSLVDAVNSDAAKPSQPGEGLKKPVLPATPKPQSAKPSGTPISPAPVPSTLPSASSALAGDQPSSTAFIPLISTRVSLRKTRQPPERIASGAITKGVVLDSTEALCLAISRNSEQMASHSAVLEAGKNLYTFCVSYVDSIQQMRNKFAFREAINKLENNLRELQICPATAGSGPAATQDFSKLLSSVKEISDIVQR
The next series deals with LCK (Homo sapiens, UniProt P06239). Put plainly: Inhibition profile at 500 nM: LCK. It counts as biochemical. Particulars: 500 nM test compound, read-out: Percent inhibition LCK. As for the experimental part:
as §1

A further series has as its target ARG/Abl2 (Homo sapiens, UniProt P42684). Put plainly: Inhibition profile at 500 nM: ARG/Abl2. To be noted: 500 nM test compound. The series is classed as biochemical. As for the experimental part:
as §1

A further series has as its target FES (Homo sapiens, UniProt P07332). Put plainly: Inhibition profile at 500 nM: FES. The series is classed as biochemical. Particulars: 500 nM test compound, read-out: Percent inhibition FES. As for the experimental part:
as §1

The target in another series is LYNA (Homo sapiens, UniProt P07948). Put plainly: Inhibition profile at 500 nM: LYNA. Particulars: 500 nM test compound, read-out: Percent inhibition LYNA. It counts as biochemical. As for the experimental part:
as §1

Another series addresses FYN (Homo sapiens, UniProt P06241). Description: Inhibition profile at 500 nM: FYN. Particulars: 500 nM test compound, read-out: Percent inhibition FYN. It counts as biochemical. As for the experimental part: as §1
The target in a further series is JNK2 (Homo sapiens, UniProt P45984). Put plainly: Inhibition profile at 500 nM: JNK2. The series is classed as biochemical. To be noted: 500 nM test compound, read-out: Percent inhibition JNK2. As for the experimental part: as §1
Sequence of JNK2 (P45984 whole entry): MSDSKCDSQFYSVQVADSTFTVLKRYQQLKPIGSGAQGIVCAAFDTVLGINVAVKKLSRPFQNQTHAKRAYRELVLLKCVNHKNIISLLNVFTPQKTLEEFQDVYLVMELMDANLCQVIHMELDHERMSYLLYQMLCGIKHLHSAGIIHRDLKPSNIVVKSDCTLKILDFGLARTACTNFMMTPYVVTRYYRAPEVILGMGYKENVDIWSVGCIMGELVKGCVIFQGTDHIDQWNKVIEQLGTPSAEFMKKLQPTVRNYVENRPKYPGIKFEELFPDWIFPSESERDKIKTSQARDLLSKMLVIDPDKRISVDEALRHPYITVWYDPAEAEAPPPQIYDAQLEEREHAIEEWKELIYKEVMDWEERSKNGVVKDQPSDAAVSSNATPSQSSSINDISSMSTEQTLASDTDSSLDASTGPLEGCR
Another series concerns the target PDGFRb (Homo sapiens, UniProt P09619). Description: Inhibition profile at 500 nM: PDGFRb. It counts as biochemical. Particulars: 500 nM test compound, read-out: Percent inhibition PDGFRb. Here is the method: as §1
Another series deals with FLT3 (Homo sapiens, UniProt P36888). Description: Inhibition profile at 500 nM: FLT3. The series is classed as biochemical. Particulars: 500 nM test compound, read-out: Percent inhibition FLT3. Here is the method: as §1
Another series has as its target SRC (Homo sapiens, UniProt P12931). Description: Inhibition profile at 500 nM: SRC. Particulars: 500 nM test compound, read-out: Percent inhibition SRC. It counts as biochemical. As for the experimental part: as §1
For a further series, the target named is KIT (Homo sapiens, UniProt P10721). Put plainly: Inhibition profile at 500 nM: KIT. It counts as biochemical. To be noted: 500 nM test compound; Table 1; read-out: Percent inhibition KIT. Here is the method:
as §1

Series [1] in a line: Pharmacokinetic parameters in Sprague-Dawley rats. The arrangement: AUC(0-t): concentration or dose not given beside the values. Particulars: rat, in vivo. Here is the method: Various pharmacokinetic parameters of the compounds described herein were measured in Sprague-Dawley rats.
A short description of a further series: Serum protein binding. It counts as in vitro ADME. To be noted: rat.
Series [2] concerns mice treated with MPTP. Put plainly: Mouse MPTP neurotoxicity model. It counts as in vivo. Particulars: for dopamine levels (protection of dopamine-secreting neurons): HPLC-ECD, FIG. 4; for pole test latency: day 14, FIG. 3, control about 5 seconds, MPTP about 30. Here is the method: Certain compounds of the present invention were evaluated using the MPTP neurotoxicity model. MPTP causes oxidative stress, which in turn causes c-Abl1 and/or c-Abl2 phosphorylation in the SNpc of mice treated with MPTP. MPTP administration according to this model produces a reliable, irreversible loss of DA neurons 7 days after the last injection, similar to that observed in PD. MPTP causes greater loss of DA neurons in SNpc and degeneration of DA nerve terminals in the caudate putamen. Many of the cell death signaling events observed in PD postmortem tissue are present in the MPTP model including oxidative stress, nitrosative stress, c-Abl activation, Parkin inactivation and PARIS and AIMP2 elevation and PARP activation. […] Because the model is relatively rapid, this model was used to assess dosing for future studies, and as a preliminary measure of efficacy.
The study design is depicted in FIG. 1. […] Wild type mice (n=5 per group) were divided into 4 treatment groups as follows: saline, MPTP, Drug and MPTP+Drug. Saline and MPTP groups were pre-treated with drug vehicle (unbuffered water) (20 animals total). Drug and MPTP+Drug groups received the test compounds for 6 days administered by oral gavage daily. On the seventh day, the saline and Drug groups received four intra-peritoneal (i.p.) injections of saline at 2 h intervals. The MPTP and MPTP+Drug groups received four intraperitoneal (i.p.) injections of MPTP·HCl (20 mg/kg free base) at 2 hr intervals. After the MPTP injection day, mice were treated for an additional 6 days with saline or an ATK inhibitor of the present invention. Mice in the saline and MPTP only groups received saline vehicle while the Drug and MPTP+Drug groups received an additional week of drug treatment. On the 14th day, mice were given a pole test, then sacrificed. Brain samples were processed for analysis of biogenic amine concentrations, including dopamine (DA), by high-performance liquid chromatography with electrochemical detection (HPLC-ECD). Loss of DA and its metabolites in the striatum is a consistently reliable indication of loss of DA neurons in the SNpc.

Series [3] is described as follows: Human liver microsome stability. It counts as in vitro ADME. Particulars: human liver microsomes; read-out: Human liver microsome t1/2.
Series [4] has as its system Mice injected with pre-formed alpha-synuclein fibrils. Description: Functional rescue in alpha-synuclein fibril model. The series is classed as in vivo. An excerpt:
Injection of pre-formed alpha-synuclein fibrils is known to induce Parkinson's-like disease in mice. […] This effect is believes to be due to the compound blocking the formation of toxic pre-formed-fibril alpha synuclein by inhibiting c-Abl.

For a further series, the system named is A53T synuclein mice. Put plainly: Functional rescue in mutated alpha-synuclein model. The series is classed as in vivo. To be noted: A53T mutant alpha-synuclein mice. An excerpt:
The A53T mutant of alpha-synuclein is a clinically identified mutation that leads to hyper aggregation of alpha-synuclein in mice, and recapitulates the symptoms of Parkinson's disease such as dopaminergic neuron loss.
This effect is believed to be due to the compound blocking formation of the toxic form of A53T-alpha-synuclein by inhibiting c-Abl.

The target in a further series is c-Abl2 (Homo sapiens, UniProt P42684). Description: Inhibition of Abelson protein kinase c-Abl2 (FAM-labeled peptide assay, IC50). It counts as biochemical. As for the experimental part: (§2) Mix the compounds in intermediate plate for 10 min on shaker. For the assay of enzyme inhibitions, 5 μl of each well from the intermediate plate is transferred to a 384-well plate in duplicates, 10. […] Then enzyme substrate is added as 10 μl of 2.5×FAM-labeled peptide+ATP solution to each well of the 384-well assay plate The reaction is allowed to proceed at 28° C. and quenched with the addition of 25 μl of stop buffer. The release of fluorescent FAM is quantitated as Percent inhibition=(max−conversion)/(max−min)*100. “max” stands for DMSO control; “min” stands for low control. Data are fit in XLFit excel add-in version 4.3.1 to obtain IC50 values. Equation used is: Y=Bottom+(Top−Bottom)/(1+(IC50/X)^HillSlope).
Sequence of c-Abl2 (P42684 whole entry): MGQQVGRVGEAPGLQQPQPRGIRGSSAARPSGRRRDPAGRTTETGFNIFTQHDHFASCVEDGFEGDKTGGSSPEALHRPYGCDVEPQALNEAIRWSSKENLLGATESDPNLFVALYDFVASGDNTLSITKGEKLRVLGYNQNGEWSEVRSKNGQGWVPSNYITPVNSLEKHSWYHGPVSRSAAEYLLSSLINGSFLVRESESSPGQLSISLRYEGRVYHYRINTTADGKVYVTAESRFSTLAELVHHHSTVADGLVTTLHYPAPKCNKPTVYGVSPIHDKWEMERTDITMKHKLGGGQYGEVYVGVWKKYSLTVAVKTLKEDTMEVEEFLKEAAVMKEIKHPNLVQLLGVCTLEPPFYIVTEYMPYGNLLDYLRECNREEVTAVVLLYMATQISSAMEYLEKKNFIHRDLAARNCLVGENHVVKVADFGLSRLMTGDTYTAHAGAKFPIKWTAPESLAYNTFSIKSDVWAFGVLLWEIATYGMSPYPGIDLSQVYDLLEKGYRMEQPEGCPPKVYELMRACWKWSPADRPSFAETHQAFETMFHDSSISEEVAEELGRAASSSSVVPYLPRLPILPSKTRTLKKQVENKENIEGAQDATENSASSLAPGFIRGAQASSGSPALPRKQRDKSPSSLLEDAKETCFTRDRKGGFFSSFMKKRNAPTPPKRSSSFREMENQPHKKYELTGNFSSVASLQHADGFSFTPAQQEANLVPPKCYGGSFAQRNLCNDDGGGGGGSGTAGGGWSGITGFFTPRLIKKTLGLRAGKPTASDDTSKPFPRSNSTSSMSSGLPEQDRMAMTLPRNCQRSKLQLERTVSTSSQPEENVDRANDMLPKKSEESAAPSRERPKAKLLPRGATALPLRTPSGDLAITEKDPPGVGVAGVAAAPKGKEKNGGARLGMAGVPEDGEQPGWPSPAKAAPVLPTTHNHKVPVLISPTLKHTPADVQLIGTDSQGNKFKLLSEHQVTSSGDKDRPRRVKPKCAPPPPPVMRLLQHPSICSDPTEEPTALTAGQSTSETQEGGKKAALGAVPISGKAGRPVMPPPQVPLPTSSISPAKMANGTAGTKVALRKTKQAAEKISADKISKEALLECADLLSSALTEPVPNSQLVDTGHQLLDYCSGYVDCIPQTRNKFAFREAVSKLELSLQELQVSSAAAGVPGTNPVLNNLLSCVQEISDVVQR

For another series, the target named is c-Abl1 (Homo sapiens, UniProt P00519). Description: Inhibition of Abelson protein kinase c-Abl1 (FAM-labeled peptide assay, IC50). It counts as biochemical. Here is the method: as §2
Sequence of c-Abl1 (P00519 whole entry): as the sequence (P00519 whole entry) above
The target of another series is YES (Homo sapiens, UniProt P07947). Put plainly: Inhibition profile at 500 nM: YES. It counts as biochemical. Particulars: 500 nM test compound; Table 2; read-out: Percent inhibition YES. As for the experimental part:
as §1

The next series deals with CMT. Put plainly: Inhibition profile at 500 nM: CMT. It counts as biochemical. To be noted: 500 nM test compound; Table 2. Here is the method: as §1
For another series, the target named is JNK1 (Homo sapiens, UniProt P45983). Description: Inhibition profile at 500 nM: JNK1. The series is classed as biochemical. To be noted: 500 nM test compound; Table 2; read-out: Percent inhibition JNK1. Here is the method: as §1
The subject of series [5] is mice treated with MPTP. Particulars: known ATK inhibitors, background statement; cited from earlier work.
Series [6] has as its system animal models of Parkinson's Disease. To be noted: literature (J. Neurosci. 31(1); Scientific Reports 4:4874); cited from earlier work.

Where two headings read alike, the source gives them in different places.

Sequence of ARG/Abl2 (P42684 whole entry): as the sequence (P42684 whole entry) above
Sequence of PDGFRb (P09619 33-1106): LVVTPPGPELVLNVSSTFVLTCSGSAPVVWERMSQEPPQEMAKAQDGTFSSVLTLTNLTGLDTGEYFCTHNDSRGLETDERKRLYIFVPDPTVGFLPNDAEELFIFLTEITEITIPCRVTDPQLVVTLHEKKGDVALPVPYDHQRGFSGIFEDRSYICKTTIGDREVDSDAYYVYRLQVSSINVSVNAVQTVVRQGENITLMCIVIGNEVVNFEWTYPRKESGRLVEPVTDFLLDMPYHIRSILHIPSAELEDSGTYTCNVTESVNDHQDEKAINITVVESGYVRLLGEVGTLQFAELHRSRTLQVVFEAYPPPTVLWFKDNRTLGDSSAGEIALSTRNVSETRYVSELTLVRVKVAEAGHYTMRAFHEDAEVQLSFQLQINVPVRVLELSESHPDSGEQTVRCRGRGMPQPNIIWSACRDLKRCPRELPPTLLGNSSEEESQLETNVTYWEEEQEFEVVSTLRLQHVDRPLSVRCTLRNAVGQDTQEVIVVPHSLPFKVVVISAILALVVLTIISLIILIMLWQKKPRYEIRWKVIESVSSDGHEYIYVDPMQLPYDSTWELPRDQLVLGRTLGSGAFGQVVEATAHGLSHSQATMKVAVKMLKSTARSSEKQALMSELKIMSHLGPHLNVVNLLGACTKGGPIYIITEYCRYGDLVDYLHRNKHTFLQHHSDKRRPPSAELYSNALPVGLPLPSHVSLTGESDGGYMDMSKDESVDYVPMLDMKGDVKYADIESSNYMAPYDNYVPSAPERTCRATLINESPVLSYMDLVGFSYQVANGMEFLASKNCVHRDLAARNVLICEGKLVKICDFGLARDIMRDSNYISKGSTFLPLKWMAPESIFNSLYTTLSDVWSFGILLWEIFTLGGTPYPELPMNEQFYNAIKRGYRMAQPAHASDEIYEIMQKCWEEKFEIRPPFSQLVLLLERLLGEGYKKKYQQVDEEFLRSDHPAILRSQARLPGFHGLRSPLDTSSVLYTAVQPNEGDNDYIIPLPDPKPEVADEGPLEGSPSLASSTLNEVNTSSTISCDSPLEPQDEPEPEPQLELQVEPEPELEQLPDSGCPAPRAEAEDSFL
Sequence of FYN (P06241 whole entry): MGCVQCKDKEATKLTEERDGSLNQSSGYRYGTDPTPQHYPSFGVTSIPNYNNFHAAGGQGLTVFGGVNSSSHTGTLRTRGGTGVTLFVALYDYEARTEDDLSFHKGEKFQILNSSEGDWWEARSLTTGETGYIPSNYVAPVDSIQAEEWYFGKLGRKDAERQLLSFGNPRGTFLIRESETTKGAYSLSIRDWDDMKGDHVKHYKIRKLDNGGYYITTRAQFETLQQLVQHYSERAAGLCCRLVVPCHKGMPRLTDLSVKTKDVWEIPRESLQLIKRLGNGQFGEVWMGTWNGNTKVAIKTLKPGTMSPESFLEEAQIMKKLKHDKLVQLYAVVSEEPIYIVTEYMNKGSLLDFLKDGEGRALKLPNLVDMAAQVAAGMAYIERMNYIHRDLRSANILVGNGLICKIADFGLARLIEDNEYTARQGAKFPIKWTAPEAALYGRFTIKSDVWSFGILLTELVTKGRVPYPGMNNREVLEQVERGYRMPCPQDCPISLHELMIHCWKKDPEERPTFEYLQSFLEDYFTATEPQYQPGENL
Sequence of LCK (P06239 whole entry): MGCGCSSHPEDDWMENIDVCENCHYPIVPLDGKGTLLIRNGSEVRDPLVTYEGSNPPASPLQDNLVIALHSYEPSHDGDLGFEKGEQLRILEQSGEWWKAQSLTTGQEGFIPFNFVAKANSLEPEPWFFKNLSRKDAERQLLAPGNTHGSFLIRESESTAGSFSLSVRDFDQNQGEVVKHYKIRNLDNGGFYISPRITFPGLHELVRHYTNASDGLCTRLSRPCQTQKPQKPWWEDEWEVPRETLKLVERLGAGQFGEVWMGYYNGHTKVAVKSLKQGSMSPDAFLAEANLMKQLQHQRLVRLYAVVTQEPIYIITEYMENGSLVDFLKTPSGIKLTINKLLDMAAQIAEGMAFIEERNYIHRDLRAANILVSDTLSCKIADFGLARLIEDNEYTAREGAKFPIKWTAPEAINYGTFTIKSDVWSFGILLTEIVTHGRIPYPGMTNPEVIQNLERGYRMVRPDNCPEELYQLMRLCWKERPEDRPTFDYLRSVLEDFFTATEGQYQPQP

As to `Cc1ccc(NC(=O)c2ccc(CN3CCN(C)CC3)cc2)cc1Nc1nccc(-c2cncc(-c3ccn[nH]3)c2)n1` [Compound 107], the inhibition at 0.5 µM was 59% on PDGFRa (Table 1); 82% at FGR (Table 1); 91% at ABL (read-out: Percent inhibition ABL); 95% on LCK (Table 1); 87% at ARG/Abl2 (Table 1, read-out: Percent inhibition ARG/Abl2); 28% at FES (Table 1). Besides, the inhibition at 0.5 µM was 93% at LYNA (Table 1); 69% on FYN (Table 1); 1.7% at JNK2 (Table 1); 101% on PDGFRb (Table 1); 51% on FLT3 (Table 1); 28% on SRC (Table 1). The inhibition at 0.5 µM on KIT came to 99%.
Turning to `Cc1cc(-c2cncc(-c3ccnc(Nc4cc(NC(=O)c5ccc(CN6CCN(C)CC6)cc5)ccc4C)n3)c2)on1` [Compound 207], in [1], the AUC(0-t) turned out to be 1650 ± 1080 ng·h/mL, the Cmax turned out to be 225 ± 83.8 ng/mL, the time of peak concentration (Tmax) amounted to 5.3 ± 1.2 h and the Vd was 6.5 ± 0.96 L/kg. In [1], this compound showed a bioavailability of 32%, a clearance of 33.3 mL/min/kg and a half-life of 3.1 h. This compound also had a fraction unbound in the series “Serum protein binding” of 0.141. Further, in the series on mice treated with MPTP [2], the “dopamine levels (protection of dopamine-secreting neurons)” value is listed as “protected dopamine-secreting neurons from degeneration” and the pole test latency result is reported as “recovered to a near-normal latency time”. Also, the half-life in [3] is 0.292 h.
For the compound `Cc1ccc(NC(=O)c2ccc(CN3CCN(C)CC3)cc2)cc1Nc1nccc(-c2cncc(-n3cccn3)c2)n1` [Compound 303], the “Percent inhibition ABL” value on ABL is reported as 79%. Further, at ARG/Abl2 (Table 1), the “Percent inhibition ARG/Abl2” value is given as 62%.
Consider `Cc1ccc(NC(=O)c2ccc(CN3CCN(C)CC3)cc2)cc1Nc1nccc(-c2cncc(-c3oncc3C)c2)n1` [Compound 809], for which, in series [1], the AUC(0-t) is 1060 ng·h/mL, the highest level (Cmax) was 170 ng/mL, the Tmax came out at 4 h and the Vd amounted to 7.2 L/kg. In [1], this compound showed a bioavailability of 24%, a clearance of 45 mL/min/kg and a half-life of 2.2 h. Moreover, the “Parkinson's-like disease after pre-formed alpha-synuclein fibrils” value in [4] is “fail to exhibit Parkinson's like disease”. The fraction unbound in “Serum protein binding” was 0.143. In addition, in the series with mice treated with MPTP [2], the “dopamine levels (protection of dopamine-secreting neurons)” value is on record as “protected dopamine-secreting neurons from degeneration” and the pole test latency entry was “recovered to a near-normal latency time”. In addition, the “dopaminergic neuron loss in A53T synuclein mice” value with A53T synuclein mice is recorded as “fail to display the characteristics of dopaminergic neuron loss”. In addition, the half-life in [3] was determined as 0.364 h.
Turning to `Cc1ccc(NC(=O)c2ccc(CN3CCN(C)CC3)cc2)cc1Nc1nccc(-c2cncc(-c3cnns3)c2)n1` [Compound 8230], the IC50 against c-Abl2 and on c-Abl1 was over 1 µM throughout.
`Cc1ccc(NC(=O)c2ccc(CN3CCN(C)CC3)cc2)cc1Nc1nccc(-c2cncc(-c3snnc3C)c2)n1` [Compound 8240]: the IC50 at c-Abl2 and on c-Abl1 was over 1 µM in each case.
In the case of `Cc1ccc(NC(=O)c2ccc(CN3CCN(C)CC3)cc2)cc1Nc1nccc(-c2cncc(-c3cnn(C)c3)c2)n1` [Compound 8300], the inhibition at 0.5 µM on PDGFRa (Table 2) is 99%; on YES, 63%; at FGR (Table 2), 81%; at LCK (Table 2), 97%; at ARG/Abl2 (Table 2, read-out: Percent inhibition Abl2), 89%; on FES (Table 2) it was 19%. Further, the inhibition at 0.5 µM on LYNA (Table 2) stood at 108%; at FYN (Table 2), 90%; at JNK2 (Table 2), 30%; on PDGFRb (Table 2) it was 98%; on FLT3 (Table 2), 61%; on SRC (Table 2) it was 45%. Further, at JNK1, the inhibition at 0.5 µM is 35%. Further, in the series with CMT, the “Percent inhibition CMT” value was determined as 88%.
Regarding `Cc1cn(-c2cc(NC(=O)c3ccc(C)c(Nc4nccc(-c5cccnc5)n4)c3)cc(C(F)(F)F)c2)cn1` [nilotinib], the “neuroprotection in the acute MPTP-induced model of PD” value with mice treated with MPTP [5] was “provide neuroprotection”. Moreover, the “effectiveness in animal models of Parkinson's Disease” value in [6] was “appear effective”.

These data come from patent US12629371B2, “Compositions and methods for inhibiting kinases” (Inhibikase Therapeutics, Inc., priority 2016, dated 2026).
